The record followed here is US20250288652A1, “BACTERIOPHAGE LYSINE, CHIMERA THEREOF AND APPLICATION THEREOF” (priority 2021, published 2025).

Where “and” joins values, the source holds several entries; their conditions need not be identical. Identical values can stand only once.

What all share (assay type): cell-based
Assay [1] deals with Propionibacterium acnes. In words: Minimum inhibitory concentration (MIC) determination, Example 6. The following applies: Cutibacterium acnes. As to the method:
(§1) The minimal inhibitory concentration (MIC) determination method is as follows. First prepare a colony suspension in 0.9% saline to an OD600 of 0.05 to prepare an inoculum, which corresponds to 10^7 colony-forming units per mL (cfu/mL). The suspension was diluted 20 times in agar-free enhanced Clostridium medium (RCM) to an inoculum of 5*10^5 cfu/mL. Prepare 2-fold serial dilutions of PACL10 or vancomycin with 0.9% saline and add no more than one-tenth of the total culture. Cultures were grown anaerobically at 37° C. for 3 days. The MIC is the lowest concentration of PACL10 or vancomycin at which no growth of P. acnes can be observed with the naked eye. The minimum bactericidal concentration (MBC) was determined by subculturing the above cultures on enhanced Clostridium agar (RCA) plates containing 0.1% Tween-80. MBC is the lowest concentration of PACL10 or vancomycin at which no P. acnes colonies are seen on the enhanced Clostridium agar (RCA) plate.

Assay [2] concerns Propionibacterium acnes. Description: Minimum bactericidal concentration (MBC) determination, Example 6. The settings on record: Cutibacterium acnes. On the procedure:
as §1

For assay [3], the system named is Propionibacterium acnes. Description: MIC of selected lysin after single-step purification, Example 8. The settings on record: single-step purified lysin. As to the method:
Express PACL 10, 390, 391, 392, 403 and 404 according to the method of Examples 1-4, and perform the following single-step purification: put Escherichia coli BL21 (DE3) containing each recombinant expression plasmid in the self-induction medium incubate at 37° C., 300 rpm for 3 hours, then at 18° C., 300 rpm for 16-18 hours. Cells were collected by centrifugation and lysed by homogenizatoin under high pressure. Clarified lysate from 1 L of E. coli culture medium expressing the protein of interest was loaded onto a 26 mm/200 mm column containing 70 mL of purification resin. The lysin was purified according to the conditions in Table 8-1, and the purity determination of the lyase after single-step purification is shown in FIG. 5. These lysin are used to determine the minimal inhibitory concentration (MIC).
The minimal inhibitory concentration (MIC) determination method is as follows. Propionibacterium acnes is streaked on Fortified Clostridium Agar (Fortified Clostridium Medium RCM with 1.5% agar, RCM was prepared according to the revised recipe, per liter—10 g acid hydrolyzed casein, 10 g beef extract, 3 g yeast extract, 5 g D—glucose, 5 g sodium chloride, 3 g sodium acetate, 0.5 g L-cysteine hydrochloride). Plates were incubated anaerobically at 37° C. for 72 hours. The inoculum for MIC determination was first prepared by resuspending single clones from RCA in 0.9% saline to an OD600 of 0.05, corresponding to 10^7 colony-forming units per milliliter (cfu/mL). The suspension was diluted 20-fold in RCM to an inoculum of 5*10^5 cfu/mL. Two-fold serial dilutions of each lyase were prepared in 0.9% saline and added not to exceed one-tenth of the total culture volume. Cultures were grown anaerobically at 37° C. for 48-72 hours. The MIC is the lowest concentration of lyase at which no growth of P. acnes can be observed with the naked eye.

Turning to `CN[C@H](CC(C)C)C(=O)N[C@H]1C(=O)N[C@@H](CC(N)=O)C(=O)N[C@H]2C(=O)N[C@H]3C(=O)N[C@H](C(=O)N[C@H](C(=O)O)c4cc(O)cc(O)c4-c4cc3ccc4O)[C@H](O)c3ccc(c(Cl)c3)Oc3cc2cc(c3O[C@@H]2O[C@H](CO)[C@@H](O)[C@H](O)[C@H]2O[C@H]2C[C@](C)(N)[C@H](O)[C@H](C)O2)Oc2ccc(cc2Cl)[C@H]1O` [Vancomycin, reference compound], the MIC is 0.5 µg/mL and 0.337 µM in the assay on Propionibacterium acnes [1] (clade IA1, strain 1); 1 µg/mL and 0.673 µM in the assay on Propionibacterium acnes [1] (clade IA1, strain 5); 0.5 µg/mL and 0.337 µM against Propionibacterium acnes [1] (clade IA1, strain 7); 1 µg/mL and 0.673 µM in the assay with Propionibacterium acnes [1] (clade IA1, strain 15); 1 µg/mL and 0.673 µM in the assay on Propionibacterium acnes [1] (clade IA1, strain 27); 0.5 µg/mL and 0.337 µM in the assay on Propionibacterium acnes [1] (clade IA2, strain 10). Moreover, the MIC with Propionibacterium acnes [1] (clade IA2, strain 14) was 0.5 µg/mL and 0.337 µM; with Propionibacterium acnes [1] (clade IA2, strain 17), 0.5 µg/mL and 0.337 µM; with Propionibacterium acnes [1] (clade IA2, strain 31) it was 0.5 µg/mL and 0.337 µM; in the assay with Propionibacterium acnes [1] (clade IA2, strain 33A), 0.5 µg/mL and 0.337 µM; in the assay on Propionibacterium acnes [1] (clade IB, strain 13) it was 1 µg/mL and 0.673 µM; against Propionibacterium acnes [1] (clade II, strain 34A) it was 0.5 µg/mL and 0.337 µM. Also, the MBC is 0.5 µg/mL and 0.337 µM against Propionibacterium acnes [2] (clade IA1, strain 1); 1 µg/mL and 0.673 µM in the assay on Propionibacterium acnes [2] (clade IA1, strain 5); 1 µg/mL and 0.673 µM in the assay with Propionibacterium acnes [2] (clade IA1, strain 7); 1 µg/mL and 0.673 µM against Propionibacterium acnes [2] (clade IA1, strain 15); 1 µg/mL and 0.673 µM against Propionibacterium acnes [2] (clade IA1, strain 27); 1 µg/mL and 0.673 µM in the assay on Propionibacterium acnes [2] (clade IA2, strain 10). Moreover, the MBC in the assay with Propionibacterium acnes [2] (clade IA2, strain 14) is 1 µg/mL and 0.673 µM; in the assay with Propionibacterium acnes [2] (clade IA2, strain 17) it was 0.5 µg/mL and 0.337 µM; against Propionibacterium acnes [2] (clade IA2, strain 31) it was 0.5 µg/mL and 0.337 µM; in the assay with Propionibacterium acnes [2] (clade IA2, strain 33A), 1 µg/mL and 0.673 µM; in the assay on Propionibacterium acnes [2] (clade IB, strain 13), 1 µg/mL and 0.673 µM; in the assay with Propionibacterium acnes [2] (clade II, strain 34A) it was 0.5 µg/mL and 0.337 µM.

`CN(C)[C@@H]1C(O)=C(C(N)=O)C(=O)[C@@]2(O)C(O)=C3C(=O)c4c(O)cccc4[C@@](C)(O)[C@H]3C[C@@H]12` [Tetracycline, reference compound]: in the assay with Propionibacterium acnes [3] (Cutibacterium acnes, clade IA2, strain 33, read-out: MIC of selected lyases relative to Propionibacterium acnes), the MIC was determined as 8 mg/L. Further, the “MIC of selected lyases relative to Propionibacterium acnes” value with Propionibacterium acnes [3] (clade IA1, strain 1) came to 8 mg/L; in the assay on Propionibacterium acnes [3] (clade IA1, strain 5), 8 mg/L; with Propionibacterium acnes [3] (clade IA1, strain 7), 8 mg/L; in the assay on Propionibacterium acnes [3] (clade IA2, strain 10), 8 mg/L; in the assay with Propionibacterium acnes [3] (clade IA2, strain 17), 8 mg/L; in the assay with Propionibacterium acnes [3] (clade II, strain 34) it was 8 mg/L.

B1: PACL391: chimeric lysin, amino acid sequence SEQ ID NO: 259 (protein)
chain: MTFIQAAHHSSGSNLPPTRVVIHATCPELGFPRASAKGRAVSTARYFQSAISGGSAHYVVDVGETVQCLAEDVIAWHAPPNSRSLGIEICADGGSATSFKNPNVRYSRAQWLSPQVWPAVLRAAALTRQMCQKYGIPVTKLSASDLKAGKKGICGHVDVSNAWHQSDHDDPGPDFPWAEFMAAVKGGATNPGGEVRTPGQQDTKPSVPTPSLTEIGDQDMNGCYYNLNSKTRTYLIFDSRSGFYHEFSQGNGNGPMSPDYVNPIAKGWDTGSWPAISPGHAKVLKAALDKVRKGI
modifications: PACL391
As for B1, the “MIC of selected lyases relative to Propionibacterium acnes” value with Propionibacterium acnes [3] (clade IA1, strain 1) came out at 8 mg/L; with Propionibacterium acnes [3] (clade IA1, strain 5) it was 16 mg/L; in the assay with Propionibacterium acnes [3] (clade IA1, strain 7) it was 8 mg/L; in the assay on Propionibacterium acnes [3] (clade IA2, strain 10), 32 mg/L; in the assay on Propionibacterium acnes [3] (clade IA2, strain 17), 32 mg/L; with Propionibacterium acnes [3] (clade IA2, strain 33) it was 16 mg/L. The “MIC of selected lyases relative to Propionibacterium acnes” value in the assay on Propionibacterium acnes [3] (clade II, strain 34) amounted to 8 mg/L.

B2: PACL392: chimeric lysin, amino acid sequence SEQ ID NO: 260 (protein)
chain: MTFIQAAHHSSGSNLPPTRVVIHATCPELGFPRASAKGRAVSTARYFQSAISGGSAHYVVDVGETVQCLAEDVIAWHAPPNSRSLGIEICADGGSATSFKNPNVRYSRAQWLSPQVWPAVLRAAALTRQMCQKYGIPVTKLSASDLKAGKKGICGHVDVSNAWHQSDHDDPGPDFPWAEFMAAVKGGATNPGGPGQQDTKPSVPTPSLTEIGDQDMNGCYYNLNSKTRTYLIFDSRSGFYHEFSQGNGNGPMSPDYVNPIAKGWDTGSWPAISPGHAKVLKAALDKVRKGI
modifications: PACL392
Consider B2, for which the “MIC of selected lyases relative to Propionibacterium acnes” value in the assay with Propionibacterium acnes [3] (clade IA1, strain 1) is 8 mg/L; with Propionibacterium acnes [3] (clade IA1, strain 5) it was 8 mg/L; in the assay on Propionibacterium acnes [3] (clade IA1, strain 7) it was 8 mg/L; in the assay on Propionibacterium acnes [3] (clade IA2, strain 10) it was 16 mg/L; in the assay on Propionibacterium acnes [3] (clade IA2, strain 17), 16 mg/L; with Propionibacterium acnes [3] (clade IA2, strain 33) it was 8 mg/L. Further, the “MIC of selected lyases relative to Propionibacterium acnes” value in the assay with Propionibacterium acnes [3] (clade II, strain 34) is 8 mg/L.

B3: PACL390: chimeric lysin, amino acid sequence SEQ ID NO: 258 (protein)
chain: MTFIQAAHHSSGSNLPPTRVVIHATCPEMGFPKASAKGRAVSTARYFQSASSGGSAHYVVDIGETVQCLGENVIAWHAPPNAHSLGIEICADGGSATSFSNPKVRYTRAQWLSPQVWPAVLRAAALTRKMCSKYGIPVVKLSASDLKAGKKGICGHVDVSNAFHQSDHDDPGPDFPWAEFMAAVKGGPGQQDTKPSVPTPSLTEIGDQDMNGCYYNLNSKTRTYLIFDSRSGFYHEFSQGNGNGPMSPDYVNPIAKGWDTGSWPAISPGHAKVLKAALDKVRKGI
modifications: PACL390
As to B3, the “MIC of selected lyases relative to Propionibacterium acnes” value in the assay on Propionibacterium acnes [3] (clade IA1, strain 1) was determined as 8 mg/L; in the assay on Propionibacterium acnes [3] (clade IA1, strain 5), 8 mg/L; in the assay with Propionibacterium acnes [3] (clade IA1, strain 7), 8 mg/L; in the assay on Propionibacterium acnes [3] (clade IA2, strain 10), 8 mg/L; in the assay with Propionibacterium acnes [3] (clade IA2, strain 17) it was 8 mg/L; in the assay with Propionibacterium acnes [3] (clade IA2, strain 33), 8 mg/L. Also, in the assay with Propionibacterium acnes [3] (clade II, strain 34), the “MIC of selected lyases relative to Propionibacterium acnes” value is 8 mg/L.

B4: PACL404: chimeric lysin, amino acid sequence SEQ ID NO: 272 (protein)
chain: MTFIQAAHHSSGSNLPPTRVVIHATCPEMGFPKASAKGRAVSTARYFQSASSGGSAHYVVDIGETVQCLGENVIAWHAPPNAHSLGIEICADGGSATSFSNPKVRYTRAQWLSPQVWPAVLRAAALTRKMCSKYGIPVVKLSASDLKAGKKGICGHVDVSNAFHQSDHDDPGPDFPWAEFMAAVKGGTTTQEDEDEMKEAGGPGQQDTKPSVPTPSLTEIGDQDMNGCYYNLNSKTRTYLIFDSRSGFYHEFSQGNGNGPMSPDYVNPIAKGWDTGSWPAISPGHAKVLKAALDKVRKGI
modifications: PACL404
For B4, the “MIC of selected lyases relative to Propionibacterium acnes” value with Propionibacterium acnes [3] (clade IA1, strain 1) was found to be 8 mg/L; in the assay with Propionibacterium acnes [3] (clade IA1, strain 5) it was 16 mg/L; with Propionibacterium acnes [3] (clade IA1, strain 7), 16 mg/L; with Propionibacterium acnes [3] (clade IA2, strain 10) it was 16 mg/L; in the assay with Propionibacterium acnes [3] (clade IA2, strain 17) it was 8 mg/L; with Propionibacterium acnes [3] (clade IA2, strain 33) it was 8 mg/L. Further, the “MIC of selected lyases relative to Propionibacterium acnes” value with Propionibacterium acnes [3] (clade II, strain 34) stood at 8 mg/L.
